Key:
Assay type in all cases: biochemical
Human JAK1 = Human JAK1 (Homo sapiens (Human), UniProt P23458); experiment: In vitro kinase inhibition test, JAK1 (33P-ATP filter scintillation); settings: compound at 1 uM; read-out: JAK1 kinase-phosphorylation inhibitory level (% inhibition)
Procedure: (§1) 1. In Vitro Kinase Inhibition Test
(§2) Kinases used were human-derived JAK1, JAK2, JAK3, and TYK2 (Millipore, Germany). Each of these kinases was diluted with a suitable buffer solution as described below, and then mixed with reagents.
Tris(hydroxymethyl)aminomethane (TRIS) and ethylenediaminetetraacetic acid (EDTA) were dissolved in distilled water at a concentration of 20 mM and 0.2 mM, respectively, and 100 uL of β-mercaptoethanol, 10 uL of Brij-35™, and 5 mL of glycerol, each per 100 mL of the solution, were added to the solution, thereby preparing a JAK1 dilution buffer solution.
(§3) Each compound was dissolved in a 100% DMSO solution at a 50 uM concentration. This solution was reacted with reagents in wells on a 96-well plate to reach a final concentration of 1 uM. Detailed experimental methods for each kinase are described below.
After reaction for about 40 minutes at room temperature, the reaction was stopped by adding 5 uL of a 3% (v/v) phosphoric acid solution. […] The methanol drying is a drying process using an azeotropic effect, wherein methanol is added into an aqueous solution for drying.
(§4) In Tables 5 and 6, the numbers in the “Example” column, which are identification numbers of the examples, indicate the compounds synthesized in the corresponding examples, the values in the “JAK1”, “JAK2”, “JAK3”, and “TYK2” columns represent kinase-phosphorylation inhibitory levels as a percentage (%) of the compounds synthesized in the corresponding examples at a 1 uM concentration. In Tables 5 and 6, negative values substantially indicate no inhibitory effect.
(§5) The inhibitory levels (% inhibition) represent a percentage of reduction in phosphorylation activity in each test group with respect to the phosphorylation activity of a corresponding kinase in a negative control group lacking any of the compounds synthesized in the examples. % inhibition=[(Scintillation value of Test compound non-treatment group−Scintillation value of Test compound treatment group)/(Scintillation value of Test compound non-treatment group)]×100

Human JAK2 = Human JAK2 (Homo sapiens (Human), UniProt O60674); experiment: In vitro kinase inhibition test, JAK2 (33P-ATP filter scintillation); settings: compound at 1 uM; read-out: JAK2 kinase-phosphorylation inhibitory level (% inhibition)
Procedure: as §1, §2
(§6) 3-morpholinopropane-1-sulfonic acid (MOPS) and EDTA were dissolved in distilled water at a concentration of 20 mM and 1 mM, respectively, and 100 uL of β-mercaptoethanol, 10 uL of Brij-35™, 5 mL of glycerol, and 100 mg of bovine serum albumin (BSA), each per 100 mL of the solution, were added to the solution, thereby preparing a JAK2, JAK3, and TYK2 dilution buffer solution.
as §3
(§7) After reaction for about 40 minutes at room temperature, the reaction was stopped by adding 5 uL of a 3% (v/v) phosphoric acid solution.
as §4, §5

Human JAK3 = Human JAK3 (Homo sapiens (Human), UniProt P52333); experiment: In vitro kinase inhibition test, JAK3 (33P-ATP filter scintillation); settings: compound at 1 uM; read-out: JAK3 kinase-phosphorylation inhibitory level (% inhibition)
Procedure: as §1, §2, §6, §3, §7, §4, §5

Human TYK2 = Human TYK2 (Homo sapiens (Human), UniProt P29597); experiment: In vitro kinase inhibition test, TYK2 (33P-ATP filter scintillation); settings: compound at 1 uM; read-out: TYK2 kinase-phosphorylation inhibitory level (% inhibition)
Procedure: as §1, §2, §6, §3, §7, §4, §5

Human JAK1, sequence (P23458 whole entry): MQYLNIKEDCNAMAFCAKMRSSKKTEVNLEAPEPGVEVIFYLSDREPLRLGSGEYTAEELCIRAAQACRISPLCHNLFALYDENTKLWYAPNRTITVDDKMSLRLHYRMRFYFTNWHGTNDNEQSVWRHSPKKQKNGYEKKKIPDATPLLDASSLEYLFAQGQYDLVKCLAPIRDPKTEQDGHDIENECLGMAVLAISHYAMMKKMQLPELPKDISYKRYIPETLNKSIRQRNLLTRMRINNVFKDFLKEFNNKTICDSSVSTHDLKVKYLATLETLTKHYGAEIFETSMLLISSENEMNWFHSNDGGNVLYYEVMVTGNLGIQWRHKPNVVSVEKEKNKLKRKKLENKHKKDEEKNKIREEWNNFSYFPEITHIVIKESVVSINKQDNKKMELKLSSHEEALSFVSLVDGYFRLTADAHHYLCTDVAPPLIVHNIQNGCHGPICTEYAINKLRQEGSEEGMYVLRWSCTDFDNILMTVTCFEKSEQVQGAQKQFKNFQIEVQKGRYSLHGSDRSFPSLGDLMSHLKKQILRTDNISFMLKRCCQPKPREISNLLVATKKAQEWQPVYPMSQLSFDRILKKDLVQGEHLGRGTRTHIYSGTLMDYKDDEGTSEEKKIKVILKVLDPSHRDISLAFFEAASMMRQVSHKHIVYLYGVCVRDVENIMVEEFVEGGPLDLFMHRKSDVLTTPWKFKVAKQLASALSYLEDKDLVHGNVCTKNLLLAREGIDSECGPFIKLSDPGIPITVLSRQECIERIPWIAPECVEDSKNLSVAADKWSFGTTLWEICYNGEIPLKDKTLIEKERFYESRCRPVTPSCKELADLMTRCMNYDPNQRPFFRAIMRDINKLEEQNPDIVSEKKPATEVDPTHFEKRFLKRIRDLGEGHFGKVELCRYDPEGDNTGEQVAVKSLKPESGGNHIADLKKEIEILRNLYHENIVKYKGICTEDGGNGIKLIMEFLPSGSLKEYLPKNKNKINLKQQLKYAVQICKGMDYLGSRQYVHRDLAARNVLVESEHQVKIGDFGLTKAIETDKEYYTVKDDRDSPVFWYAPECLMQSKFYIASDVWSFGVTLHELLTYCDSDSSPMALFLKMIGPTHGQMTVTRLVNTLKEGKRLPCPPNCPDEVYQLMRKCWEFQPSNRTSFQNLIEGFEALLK
Human JAK3, sequence (P52333 whole entry): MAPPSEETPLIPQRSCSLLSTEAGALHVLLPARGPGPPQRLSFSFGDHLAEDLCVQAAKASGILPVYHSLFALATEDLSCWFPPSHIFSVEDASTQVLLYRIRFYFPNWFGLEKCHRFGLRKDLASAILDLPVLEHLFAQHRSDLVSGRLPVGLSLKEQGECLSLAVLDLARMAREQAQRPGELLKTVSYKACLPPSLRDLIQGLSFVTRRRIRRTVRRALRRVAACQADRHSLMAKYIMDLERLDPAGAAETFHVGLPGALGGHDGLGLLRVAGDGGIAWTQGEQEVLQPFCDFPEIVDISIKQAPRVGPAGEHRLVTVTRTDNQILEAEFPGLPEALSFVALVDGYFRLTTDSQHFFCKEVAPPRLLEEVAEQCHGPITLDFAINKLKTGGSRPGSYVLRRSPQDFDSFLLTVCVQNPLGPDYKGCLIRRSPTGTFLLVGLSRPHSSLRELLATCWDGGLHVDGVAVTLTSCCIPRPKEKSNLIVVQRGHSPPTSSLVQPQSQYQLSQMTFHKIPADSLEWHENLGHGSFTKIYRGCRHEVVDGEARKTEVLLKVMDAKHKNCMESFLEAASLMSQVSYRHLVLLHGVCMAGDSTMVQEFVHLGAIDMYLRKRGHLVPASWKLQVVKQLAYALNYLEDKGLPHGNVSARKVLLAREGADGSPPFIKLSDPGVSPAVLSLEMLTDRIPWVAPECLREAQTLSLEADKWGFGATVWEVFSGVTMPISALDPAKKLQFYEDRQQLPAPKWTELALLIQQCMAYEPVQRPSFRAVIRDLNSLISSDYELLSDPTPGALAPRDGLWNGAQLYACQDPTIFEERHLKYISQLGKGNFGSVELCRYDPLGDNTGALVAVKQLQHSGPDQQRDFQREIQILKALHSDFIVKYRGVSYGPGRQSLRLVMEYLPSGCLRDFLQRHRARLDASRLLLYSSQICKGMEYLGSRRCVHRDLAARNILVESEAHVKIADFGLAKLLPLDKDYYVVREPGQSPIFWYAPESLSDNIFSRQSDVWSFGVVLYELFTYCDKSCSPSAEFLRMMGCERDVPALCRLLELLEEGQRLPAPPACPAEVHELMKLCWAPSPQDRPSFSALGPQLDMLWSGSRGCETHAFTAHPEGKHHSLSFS
Human JAK2, sequence (O60674 whole entry): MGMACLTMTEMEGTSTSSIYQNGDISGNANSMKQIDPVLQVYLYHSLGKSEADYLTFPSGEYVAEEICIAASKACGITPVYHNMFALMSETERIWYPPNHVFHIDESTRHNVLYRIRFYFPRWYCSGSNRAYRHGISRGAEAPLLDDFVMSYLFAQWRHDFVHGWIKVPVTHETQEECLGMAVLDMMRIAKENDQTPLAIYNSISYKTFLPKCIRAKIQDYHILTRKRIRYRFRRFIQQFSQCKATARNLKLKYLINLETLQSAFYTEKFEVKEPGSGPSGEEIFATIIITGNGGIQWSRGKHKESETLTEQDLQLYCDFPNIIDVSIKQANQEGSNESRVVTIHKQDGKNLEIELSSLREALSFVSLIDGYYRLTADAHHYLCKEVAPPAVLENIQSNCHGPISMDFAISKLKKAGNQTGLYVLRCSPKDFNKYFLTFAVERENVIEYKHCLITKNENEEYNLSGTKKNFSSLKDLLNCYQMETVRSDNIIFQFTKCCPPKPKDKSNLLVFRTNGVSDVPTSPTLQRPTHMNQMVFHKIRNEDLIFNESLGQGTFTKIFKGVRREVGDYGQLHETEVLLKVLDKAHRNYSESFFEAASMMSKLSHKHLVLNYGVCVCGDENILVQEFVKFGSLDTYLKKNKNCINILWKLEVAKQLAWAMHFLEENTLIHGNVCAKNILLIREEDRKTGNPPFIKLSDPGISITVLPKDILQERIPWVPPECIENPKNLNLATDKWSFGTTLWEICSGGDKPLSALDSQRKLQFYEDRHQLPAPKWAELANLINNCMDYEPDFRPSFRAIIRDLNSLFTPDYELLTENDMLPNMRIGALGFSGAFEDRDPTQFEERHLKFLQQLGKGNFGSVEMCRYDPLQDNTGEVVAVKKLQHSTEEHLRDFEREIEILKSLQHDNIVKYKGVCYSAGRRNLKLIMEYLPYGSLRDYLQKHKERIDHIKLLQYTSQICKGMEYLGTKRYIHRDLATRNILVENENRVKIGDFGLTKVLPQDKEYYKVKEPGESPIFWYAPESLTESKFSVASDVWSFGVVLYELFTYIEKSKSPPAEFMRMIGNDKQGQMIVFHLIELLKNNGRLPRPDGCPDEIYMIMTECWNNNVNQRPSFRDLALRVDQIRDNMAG
Human TYK2, sequence (P29597 whole entry): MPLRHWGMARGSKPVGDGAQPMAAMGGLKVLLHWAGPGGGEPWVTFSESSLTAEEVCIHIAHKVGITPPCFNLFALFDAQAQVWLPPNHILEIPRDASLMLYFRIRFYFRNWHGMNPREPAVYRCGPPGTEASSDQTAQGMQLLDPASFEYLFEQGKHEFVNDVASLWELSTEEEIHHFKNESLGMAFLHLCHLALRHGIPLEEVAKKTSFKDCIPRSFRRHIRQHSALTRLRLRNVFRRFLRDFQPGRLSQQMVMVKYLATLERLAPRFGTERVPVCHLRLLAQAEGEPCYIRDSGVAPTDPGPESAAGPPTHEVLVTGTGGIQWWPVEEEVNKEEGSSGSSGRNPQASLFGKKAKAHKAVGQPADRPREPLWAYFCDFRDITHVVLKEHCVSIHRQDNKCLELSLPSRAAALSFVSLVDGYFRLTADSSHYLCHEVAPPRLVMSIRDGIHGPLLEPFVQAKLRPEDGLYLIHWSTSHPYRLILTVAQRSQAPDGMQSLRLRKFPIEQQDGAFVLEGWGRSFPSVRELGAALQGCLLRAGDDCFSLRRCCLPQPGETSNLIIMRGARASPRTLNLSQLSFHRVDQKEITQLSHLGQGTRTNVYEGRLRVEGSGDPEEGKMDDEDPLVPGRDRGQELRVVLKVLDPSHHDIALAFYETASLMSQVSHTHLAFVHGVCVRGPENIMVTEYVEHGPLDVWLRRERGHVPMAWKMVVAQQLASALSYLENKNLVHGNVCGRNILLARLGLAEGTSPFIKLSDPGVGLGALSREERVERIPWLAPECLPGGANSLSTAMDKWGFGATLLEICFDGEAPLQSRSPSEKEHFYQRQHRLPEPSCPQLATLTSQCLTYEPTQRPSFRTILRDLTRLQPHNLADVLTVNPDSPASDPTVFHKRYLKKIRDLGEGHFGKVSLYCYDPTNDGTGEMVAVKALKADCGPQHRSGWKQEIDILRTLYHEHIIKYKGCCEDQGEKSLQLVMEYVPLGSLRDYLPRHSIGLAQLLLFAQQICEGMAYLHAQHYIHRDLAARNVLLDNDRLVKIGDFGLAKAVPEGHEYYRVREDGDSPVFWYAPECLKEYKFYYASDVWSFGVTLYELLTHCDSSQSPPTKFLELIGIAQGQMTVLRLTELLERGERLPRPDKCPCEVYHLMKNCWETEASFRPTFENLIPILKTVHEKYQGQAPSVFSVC

Row | inhibition at 1 µM (Human JAK1) | inhibition at 1 µM (Human JAK2) | inhibition at 1 µM (Human JAK3) | inhibition at 1 µM (Human TYK2) | Structure (SMILES)
1 | 83% | 25% | 16% | 49% | CC(C)C(=O)N1C[C@H](N(C)c2ncnc3[nH]ccc23)C2(CC2)C1 [Example 3, (R)-2-methyl-1-(7-(methyl(7H-pyrrolo[2,3-d]pyrimidin-4-yl)amino)-5-azaspiro[2.4]heptan-5-yl)propan-1-one]
2 | 95% | 72% | 57% | 78% | CN(c1ncnc2[nH]ccc12)[C@H]1CN(C(=O)CN=[N+]=[N-])CC12CC2 [Example 4, (R)-2-azido-1-(7-(methyl(7H-pyrrolo[2,3-d]pyrimidin-4-yl)amino)-5-azaspiro[2.4]heptan-5-yl)ethan-1-one]
3 | 90% | 21% | 18% | 46% | CC(C)CC(=O)N1C[C@H](N(C)c2ncnc3[nH]ccc23)C2(CC2)C1 [Example 6, (R)-3-methyl-1-(7-(methyl(7H-pyrrolo[2,3-d]pyrimidin-4-yl)amino)-5-azaspiro[2.4]heptan-5-yl)butan-1-one]
4 | 70% | -17% | 8% | 8% | CC(=O)NCC(=O)N1C[C@H](N(C)c2ncnc3[nH]ccc23)C2(CC2)C1 [Example 7, (R)-N-(2-(7-(methyl(7H-pyrrolo[2,3-d]pyrimidin-4-yl)amino)-5-azaspiro[2.4]heptan-5-yl)-2-oxoethyl)acetamide]
5 | 61% | -7% | 3% | 11% | CNC(=O)CC(=O)N1C[C@H](N(C)c2ncnc3[nH]ccc23)C2(CC2)C1 [Example 8, (R)-N-methyl-3-(7-(methyl(7H-pyrrolo[2,3-d]pyrimidin-4-yl)amino)-5-azaspiro[2.4]heptan-5-yl)-3-oxopropanamide]
6 | 90% | 10% | 13% | 70% | CN(c1ncnc2[nH]ccc12)[C@H]1CN(C(=O)C2CC2)CC12CC2 [Example 9, (R)-cyclopropyl(7-(methyl(7H-pyrrolo[2,3-d]pyrimidin-4-yl)amino)-5-azaspiro[2.4]heptan-5-yl)methanone]
7 | 88% | 2% | 23% | 52% | CC(=O)N1CCC(C(=O)N2C[C@H](N(C)c3ncnc4[nH]ccc34)C3(CC3)C2)CC1 [Example 10, (R)-1-(4-(7-(methyl(7H-pyrrolo[2,3-d]pyrimidin-4-yl)amino)-5-azaspiro[2.4]heptane-5-carbonyl)piperidin-1-yl)ethan-1-one]
8 | 93% | 10% | 15% | 61% | CN(c1ncnc2[nH]ccc12)[C@H]1CN(C(=O)c2ccco2)CC12CC2 [Example 11, (R)-furan-2-yl(7-(methyl(7H-pyrrolo[2,3-d]pyrimidin-4-yl)amino)-5-azaspiro[2.4]heptan-5-yl)methanone]
9 | 80% | -11% | 2% | 26% | CN(c1ncnc2[nH]ccc12)[C@H]1CN(C(=O)c2cccnc2)CC12CC2 [Example 12, (R)-(7-(methyl(7H-pyrrolo[2,3-d]pyrimidin-4-yl)amino)-5-azaspiro[2.4]heptan-5-yl)(pyridin-3-yl)methanone]
10 | 81% | -11% | 13% | 30% | CN(c1ncnc2[nH]ccc12)[C@H]1CN(C(=O)c2ccccc2)CC12CC2 [Example 13, (R)-(7-(methyl(7H-pyrrolo[2,3-d]pyrimidin-4-yl)amino)-5-azaspiro[2.4]heptan-5-yl)(phenyl)methanone]
11 | 84% | -14% | 12% | 15% | CN(c1ncnc2[nH]ccc12)[C@H]1CN(C(=O)c2ccncc2)CC12CC2 [Example 14, (R)-(7-(methyl(7H-pyrrolo[2,3-d]pyrimidin-4-yl)amino)-5-azaspiro[2.4]heptan-5-yl)(pyridin-4-yl)methanone]
12 | 76% | -15% | 13% | 43% | CN(c1ncnc2[nH]ccc12)[C@H]1CN(C(=O)c2cccc(C#N)c2)CC12CC2 [Example 15, (R)-3-(7-(methyl(7H-pyrrolo[2,3-d]pyrimidin-4-yl)amino)-5-azaspiro[2.4]heptane-5-carbonyl)benzonitrile]
13 | 79% | 13% | 15% | 23% | CN(c1ncnc2[nH]ccc12)[C@H]1CN(C(=O)c2ccc(C#N)cc2)CC12CC2 [Example 16, (R)-4-(7-(methyl(7H-pyrrolo[2,3-d]pyrimidin-4-yl)amino)-5-azaspiro[2.4]heptane-5-carbonyl)benzonitrile]
14 | 65% | -14% | -1% | 39% | CN(c1ncnc2[nH]ccc12)[C@H]1CN(C(=O)c2ccccc2C(F)(F)F)CC12CC2 [Example 17, (R)-(7-(methyl(7H-pyrrolo[2,3-d]pyrimidin-4-yl)amino)-5-azaspiro[2.4]heptan-5-yl)(2-(trifluoromethyl)phenyl)methanone]
15 | 71% | -17% | 5% | 37% | CN(c1ncnc2[nH]ccc12)[C@H]1CN(C(=O)c2cccc(C(F)(F)F)c2)CC12CC2 [Example 18, (R)-(7-(methyl(7H-pyrrolo[2,3-d]pyrimidin-4-yl)amino)-5-azaspiro[2.4]heptan-5-yl)(3-(trifluoromethyl)phenyl)methanone]
16 | 98% | 80% | 82% | 91% | CN(c1ncnc2[nH]ccc12)[C@H]1CN(C(=S)CC#N)CC12CC2 [Example 19, (R)-3-(7-(methyl(7H-pyrrolo[2,3-d]pyrimidin-4-yl)amino)-5-azaspiro[2.4]heptan-5-yl)-3-thioxopropanenitrile]
17 | 93% | 27% | 27% | 43% | CC(C)COC(=O)N1C[C@H](N(C)c2ncnc3[nH]ccc23)C2(CC2)C1 [Example 20, isobutyl (R)-7-(methyl(7H-pyrrolo[2,3-d]pyrimidin-4-yl)amino)-5-azaspiro[2.4]heptane-5-carboxylate]
18 | 94% | -3% | 31% | 30% | CCCCNC(=O)N1C[C@H](N(C)c2ncnc3[nH]ccc23)C2(CC2)C1 [Example 21, (R)-N-butyl-7-(methyl(7H-pyrrolo[2,3-d]pyrimidin-4-yl)amino)-5-azaspiro[2.4]heptane-5-carboxamide]
19 | 90% | -5% | 16% | 15% | CN(c1ncnc2[nH]ccc12)[C@H]1CN(C(=O)NC2CCCCC2)CC12CC2 [Example 22, (R)-N-cyclohexyl-7-(methyl(7H-pyrrolo[2,3-d]pyrimidin-4-yl)amino)-5-azaspiro[2.4]heptane-5-carboxamide]

Row | Structure (SMILES) | inhibition at 1 µM (Human JAK1) | inhibition at 1 µM (Human JAK2) | inhibition at 1 µM (Human JAK3) | inhibition at 1 µM (Human TYK2)
20 | CCCCN1C[C@H](N(C)c2ncnc3[nH]ccc23)C2(CC2)C1 [Example 1, (R)-N-(5-butyl-5-azaspiro[2.4]heptan-7-yl)-N-methyl-7H-pyrrolo[2,3-d]pyrimidin-4-amine] | 79% | -14% | 8% | -4%
21 | CCCCCN1C[C@H](N(C)c2ncnc3[nH]ccc23)C2(CC2)C1 [Example 2, (R)-N-methyl-N-(5-pentyl-5-azaspiro[2.4]heptan-7-yl)-7H-pyrrolo[2,3-d]pyrimidin-4-amine] | 77% | -19% | 7% | 3%
